Measured values reported in patent publication US11390580B2, “Anti-fungals targeting the synthesis of fungal shingolipids” (THE RESEARCH FOUNDATION FOR THE STATE UNIVERSITY OF NEW YORK, priority 2014, dated 2022).
Values after ≈ are worked out from the molar mass of the structure shown. Values joined by “and” are separate entries in the source; they are usually repeats but may differ in a detail not shown here. Equal values may be shown once. Read-outs that look alike come from different tables or passages of the source.

Tests used:
C. neoformans H99 [1] = experiment: Comparison studies, intravenous (CNS) cryptococcosis survival; type: in vivo, mice
Method: For survival studies, 4-week old CBA/J female mice (Jackson Laboratory, Bar Harbor, Me.) were used. Total of forty mice were infected by tail vein injection of 200 μL containing 10^5 cells of C. neoformans H99 and were randomly separated into 5 groups (8 mice per group). Treatment started within 2 hours of infection. The treated mice received an intraperitoneal injection of 1.2 mg/kg/day of BHBM, 1, amphotericin B or 10 mg/kg/day of fluconazole in 100 μL final volume of PBS containing 0.4% DMSO. Untreated mice, received 100 μL of PBS/0.4% DMSO. Mice were fed ad-libitum and monitored closely for sign of discomfort and meningitis. Mice showing abnormal gait, lethargy, tremor, significant loss of body weight, or inability to reach water or food were sacrificed and survival was counted until that day.

P. murina [2] = system: P. murina
Candida albicans SC-5314 = experiment: Animal studies for candidiasis (intravenous infection); type: in vivo, mice
Method: For survival studies, 8-week old CBA/J female mice (Jackson Laboratory) were used. Eight mice per treatment or control group were used. Mice were infected by intravenous inoculation of 100 μL containing 1×10^5 cells of Candida albicans SC-5314 strain. […] Untreated mice, received 100 μL of PBS/0.4% DMSO. Mice were feed ad-libitum and monitored closely for sign of discomfort. At the end of the survival study, tissue burden culture was performed in mice that survived the infection. Mice were sacrificed and their organs were extracted and homogenized in 10 ml sterile PBS using homogenizer. Organ homogenates were diluted 10 times in PBS, and 100 μL was plated on YPD agar plates and incubated at 30° C. for 72 hours for CFU count.

[3] = In vivo toxicity in uninfected mice; conditions: treated daily for 60 days
C. neoformans (H99) = experiment: Transmission electron microscopy of treated cells; conditions: 4 μg/mL, 6 hours
[4] = system: synthesis of GlcCer in mammalian (J774) cells; experiment: In vivo labeling with 3H palmitate, TLC of GlcCer; type: cell-based, murine; conditions: 3H palmitate labeling
Cryptococcus neoformans = experiment: In vitro susceptibility testing (MIC); type: cell-based
L2 cell line = experiment: In vitro toxicity; type: cell-based
A549 cell line = experiment: In vitro toxicity; type: cell-based
P. murina [5] = system: P. murina; remark: listed apart in the source
P. murina [6] = experiment: Animal studies for pneumocystosis, CD4-depleted mice; conditions: mouse, in vivo
[7] = system: synthesis of GlcCer in C. neoformans cells; experiment: In vivo labeling with 3H palmitate, TLC of GlcCer; conditions: 3H palmitate labeling
Candida spp = experiment: In vitro susceptibility testing; type: cell-based; conditions: most Candida spp examined
[8] = system: C. neoformans sphingolipids; experiment: Sphingolipid levels by TLC and lipid mass spectrometry; type: cell-based, Cryptococcus neoformans; conditions: TLC, confirmed by mass spectrometry
Method: Labeling fungal cells. […] Samples without drug were included as control. Before lipid extraction, lipid internal standards (C17 ceramide and C17 sphingosine) were added. Lipids were then extracted following the methods of […] and Bligh and Dyer and one fourth of the sample was aliquoted for determination of the inorganic phosphate. The remainder of the sample was subjected to base hydrolysis and then analyzed using LC/MS. Results were normalized with the inorganic phosphate levels.

Solubility = type: physicochemical; conditions: at 1 mg/ml concentration
C. neoformans [9] = experiment: Resistance assay, daily passages in sub-MIC drug; conditions: 15 days of passages below the MIC
[10] = In vitro toxicity, MTT assay; conditions: mouse, J774.16 macrophage cells
C. neoformans H99 [11] = experiment: Animal studies for cryptococcosis (intranasal infection); type: in vivo, mice
C. neoformans [12] = experiment: Synergistic assay (fractional inhibitory index, FIC)
C. neoformans [13] = experiment: In vitro killing assay (time-kill, CFU); type: cell-based, Cryptococcus neoformans
Method: At the illustrated time points, aliquots were taken and diluted and 100 μL was plated onto yeast peptone dextrose (YPD) plates. YPD plates were incubated in a 30° C. incubator and, after 72 hours, colony forming units (CFU) were counted and recorded.

Pneumocystis murina = experiment: In vitro testing by ATP content (luciferin-luciferase); conditions: read-out: percentage inhibition of ATP
Pneumocystis jiroveci = experiment: as above; conditions: read-out: percentage inhibition of ATP

C[C@@H]1[C@H](O)[C@@H](C)/C=C/C=C/C=C/C=C/C=C/C=C/C=C/[C@H](O[C@@H]2O[C@H](C)[C@@H](O)[C@H](N)[C@@H]2O)C[C@@H]2O[C@](O)(C[C@@H](O)C[C@@H](O)[C@H](O)CC[C@@H](O)C[C@@H](O)CC(=O)O[C@H]1C)C[C@H](O)[C@H]2C(=O)O [Amphotericin B]
average survival (C. neoformans H99 [1]; IP, 1.2 mg/kg/day BHBM, 1, amphotericin B, 10 mg/kg/day fluconazole): 23.5 ± 6.5 days

O=C(NN=Cc1ccc(O)c(Br)c1)c1cccc(Br)c1 [Compound 1, 3-bromo-N′-(3-bromo-4-hydroxybenzylidene) benzohydrazide]
survival (P. murina [2]; 14 days of treatment): improved survival
number of asci in the lung (P. murina [2]; day 14): significantly decreased
mice alive (Candida albicans SC-5314; 1.2 mg/kg/day intraperitoneally, after 21 days of infection): 75%
clearance of infection (tissue burden) (Candida albicans SC-5314; day 21, surviving treated mice): able to clear C. albicans infection
appearance, weight, physical activity and behavior [3]: appeared normal
number of vacuoles per μm^2 of cell surface area (C. neoformans (H99)): 0.93±0.54
inhibition of the synthesis of GlcCer [4]: no significant changes
inhibition of the synthesis of GlcCer ([4]; listed as #5285729): not in mammalian (J774) cells
antifungal activity of derivatives (Cryptococcus neoformans): improved activity
MFC (Cryptococcus neoformans; Cryptococcus neoformans, read-out: MFC (minimum fungicidal concentration)): 1.2 mg/L (≈ 3.01 µM)
toxicity (L2 cell line): slight to moderate toxicity
toxicity (A549 cell line): slight to moderate toxicity
toxicity in mice immunosuppressed with corticosteroids (P. murina [5]): some toxicity
asci and troph burdens vs vehicle (P. murina [5]; 1.25 mg/kg/day and 12.5 mg/kg/day for 14 days): significantly reduced
survival vs control steroid negative controls (P. murina [5]; 1.25 and 12.5 mg/kg/day, 14 days): did not increase survival
signs of toxicity (P. murina [6]): no signs of toxicity
inhibition of the synthesis of GlcCer [7]: significantly inhibit the synthesis of GlcCer
in vitro susceptibility (Candida spp): resistant
sphingosine level [8]: accumulation of sphingosines
DMSO required (Solubility): 50%
development of resistance (C. neoformans [9]): do not develop resistance
EC50 at 48 h [10]: 50 mg/L (≈ 126 µM)
mice surviving infection (C. neoformans H99 [11]; 1.2 mg/Kg/day intraperitoneally, up to 60 days): 70%
fungal burden in brain (C. neoformans H99 [11]; 1.2 mg/Kg/day, day 60): No C. neoformans cells were found in brains
fungal burden in lung (C. neoformans H99 [11]; 1.2 mg/Kg/day, day 60, compared to infected untreated mice): decrease the fungal burden in the lung
brain histology (C. neoformans H99 [11]; day 60): no fungal cells and normal structure
lung histology (C. neoformans H99 [11]; day 60): granulomatous response limited in few areas of the lung
FIC index (C. neoformans [12]; combined with Amphotericin B): 0.77
FIC index (C. neoformans [12]; combined with Fluconazole): 0.47
interaction (C. neoformans [12]; combined with Tunicamycin): additive
FIC index (C. neoformans [12]; combined with caspofungin): 1
type of killing (C. neoformans [13]; time-kill assay): time-dependent killing
dead cells (C. neoformans [13]; within 24 hours): 100%

N=C(N)c1ccc(OCCCCCOc2ccc(C(=N)N)cc2)cc1 [Pentamidine, reference compound]
inhibition at 1 µg/mL (Pneumocystis murina; 24 h): 78.2%
inhibition at 1 µg/mL (Pneumocystis murina; 48 h): 80.3%
inhibition at 1 µg/mL (Pneumocystis murina; 72 h): 74.1%
inhibition at 1 µg/mL (Pneumocystis murina; 96 h): 27.8%
inhibition at 1 µg/mL (Pneumocystis jiroveci; 24 h): 45.7%
inhibition at 1 µg/mL (Pneumocystis jiroveci; 48 h): 86.5%
inhibition at 1 µg/mL (Pneumocystis jiroveci; 72 h): 84.2%
inhibition at 1 µg/mL (Pneumocystis jiroveci; 96 h): 81.4%

OC(Cn1cncn1)(Cn1cncn1)c1ccc(F)cc1F [fluconazole]
average survival (C. neoformans H99 [1]; mouse, in vivo): 10 ± 2 days and 10.0 ± 2.0 days
